Test results taken from ChEMBL document CHEMBL1201862, “PubChem BioAssay data set” (2004).
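Cells were grown in 96-well plates and exposed to each compound for 48 hours at five concentrations; endpoints were interpolated linearly between bracketing concentrations, or set to the highest concentration if not reached. At the GI50, growth is halved.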 Active and inactive are the calls of the source. Rule as the data show it: active = GI50 up to about 1.1 µM and inactive = higher.

Assays:
Test in all cases: NCI anticancer screen, dose series, 48 h
TK-10 = system: TK-10
IGROV-1 = system: IGROV-1
UO-31 = system: UO-31
KM12 = system: KM12
HL-60 = system: HL-60
HOP-92 = system: HOP-92
M14 = system: M14
NCI/ADR-RES = system: NCI/ADR-RES
MDA-N = system: MDA-N
A498 = system: A498
SNB-75 = system: SNB-75
BT-549 = system: BT-549
SK-MEL-2 = system: SK-MEL-2
SK-MEL-28 = system: SK-MEL-28
OVCAR-4 = system: OVCAR-4
HOP-62 = system: HOP-62
RXF 393 = system: RXF 393
UACC-62 = system: UACC-62
DU-145 = system: DU-145
A549 = system: A549

COc1ccc(N2C(=O)C3c4[nH]c5ccc(OCc6ccccc6)cc5c4C4CCC(c5ccccc5)CC4C3C2=O)cc1 (stereo not given)
GI50 (TK-10): 7.55 µM (inactive) | GI50 (IGROV-1): 8.85 µM (inactive) | GI50 (UO-31): 53.6 µM (inactive) | GI50 (KM12): 27 µM (inactive) | GI50 (HL-60): 0.34 µM (active) | GI50 (HOP-92): 3.08 µM (inactive) | GI50 (M14): 6.78 µM (inactive) | GI50 (NCI/ADR-RES): 18.8 µM (inactive) | GI50 (MDA-N): 22.6 µM (inactive) | GI50 (A498): 23.9 µM (inactive) | GI50 (SNB-75): 7.82 µM (inactive) | GI50 (BT-549): 4.55 µM (inactive) | GI50 (SK-MEL-2): 23.1 µM (inactive) | GI50 (SK-MEL-28): 1.94 µM (inactive) | GI50 (OVCAR-4): 1.19 µM (inactive) | GI50 (HOP-62): 3.37 µM (inactive) | GI50 (RXF 393): 6.49 µM (inactive) | GI50 (UACC-62): 6.95 µM (inactive) | GI50 (DU-145): 8.07 µM (inactive) | GI50 (A549): 9.64 µM (inactive)

CC(C)NC(=O)OCc1c(COC(=O)NC(C)C)c(-c2ccc[n+](COC(=O)Cc3ccccc3)c2)n2c1CCC2
GI50 (TK-10): 45 µM (inactive) | GI50 (IGROV-1): 75.3 µM (inactive) | GI50 (UO-31): 27.5 µM (inactive) | GI50 (KM12): > 100 µM (inactive) | GI50 (HL-60): > 100 µM (inactive) | GI50 (HOP-92): 16.4 µM (inactive) | GI50 (M14): 40.2 µM (inactive) | GI50 (NCI/ADR-RES): 36.6 µM (inactive) | GI50 (MDA-N): 80 µM (inactive) | GI50 (A498): 22.5 µM (inactive) | GI50 (SNB-75): 24.3 µM (inactive) | GI50 (BT-549): 24.1 µM (inactive) | GI50 (SK-MEL-2): 28.1 µM (inactive) | GI50 (SK-MEL-28): > 100 µM (inactive) | GI50 (OVCAR-4): 25 µM (inactive) | GI50 (HOP-62): 31.7 µM (inactive) | GI50 (RXF 393): 23 µM (inactive) | GI50 (UACC-62): 17 µM (inactive) | GI50 (DU-145): 25.4 µM (inactive) | GI50 (A549): 44.8 µM (inactive)

CCc1nc(N)nc(N)c1-c1ccc(Cl)c([N+](=O)[O-])c1
GI50 (TK-10): 17.9 µM (inactive) | GI50 (IGROV-1): 0.0778 µM (active) | GI50 (UO-31): 1.18 µM (inactive) | GI50 (KM12): 0.535 µM (active) | GI50 (HL-60): 0.053 µM (active) | GI50 (HOP-92): 5.16 µM (inactive) | GI50 (M14): 0.0735 µM (active) | GI50 (NCI/ADR-RES): 0.334 µM (active) | GI50 (MDA-N): 0.0764 µM (active) | GI50 (A498): 2.49 µM (inactive) | GI50 (SNB-75): 4.29 µM (inactive) | GI50 (BT-549): 31.2 µM (inactive) | GI50 (SK-MEL-2): 17.9 µM (inactive) | GI50 (SK-MEL-28): 37.9 µM (inactive) | GI50 (OVCAR-4): 22.6 µM (inactive) | GI50 (HOP-62): 0.596 µM (active) | GI50 (RXF 393): 10.8 µM (inactive) | GI50 (UACC-62): 0.0573 µM (active) | GI50 (DU-145): 0.611 µM (active) | GI50 (A549): 0.0218 µM (active)

CC(C)(C)c1cc(OCc2nn3c(Cc4ccccc4)nnc3s2)c(Cl)cc1OCc1nn2c(Cc3ccccc3)nnc2s1
GI50 (TK-10): 34.4 µM (inactive) | GI50 (IGROV-1): 20.7 µM (inactive) | GI50 (UO-31): 31.1 µM (inactive) | GI50 (KM12): 26.9 µM (inactive) | GI50 (HL-60): 23.9 µM (inactive) | GI50 (HOP-92): 16.2 µM (inactive) | GI50 (M14): 29.7 µM (inactive) | GI50 (NCI/ADR-RES): 39.3 µM (inactive) | GI50 (MDA-N): 36.5 µM (inactive) | GI50 (A498): 15 µM (inactive) | GI50 (SNB-75): 91 µM (inactive) | GI50 (BT-549): 25.1 µM (inactive) | GI50 (SK-MEL-2): 30.8 µM (inactive) | GI50 (SK-MEL-28): 36.2 µM (inactive) | GI50 (OVCAR-4): 19.8 µM (inactive) | GI50 (HOP-62): 94.2 µM (inactive) | GI50 (RXF 393): 17.1 µM (inactive) | GI50 (UACC-62): 24.1 µM (inactive) | GI50 (DU-145): 30.5 µM (inactive) | GI50 (A549): 29.7 µM (inactive)

CSc1nc(NC2OC(COC(C)=O)C(OC(C)=O)C(OC(C)=O)C2OC(C)=O)c(/N=C\C=N/c2c(NC3OC(COC(C)=O)C(OC(C)=O)C(OC(C)=O)C3OC(C)=O)nc(SC)n(C)c2=O)c(=O)n1C (stereo not given)
GI50 (TK-10): 45.9 µM (inactive) | GI50 (IGROV-1): 65.8 µM (inactive) | GI50 (UO-31): > 100 µM (inactive) | GI50 (KM12): > 100 µM (inactive) | GI50 (HL-60): > 100 µM (inactive) | GI50 (HOP-92): 25.9 µM (inactive) | GI50 (M14): > 4.65 µM (inactive) | GI50 (NCI/ADR-RES): > 100 µM (inactive) | GI50 (MDA-N): > 100 µM (inactive) | GI50 (A498): 38.5 µM (inactive) | GI50 (SNB-75): 12.2 µM (inactive) | GI50 (BT-549): > 65.6 µM (inactive) | GI50 (SK-MEL-2): 32.7 µM (inactive) | GI50 (SK-MEL-28): > 100 µM (inactive) | GI50 (OVCAR-4): > 100 µM (inactive) | GI50 (HOP-62): 4.32 µM (inactive) | GI50 (RXF 393): 17.9 µM (inactive) | GI50 (UACC-62): > 94.8 µM (inactive) | GI50 (DU-145): > 100 µM (inactive) | GI50 (A549): > 100 µM (inactive)
